Results as given in the supplement of paper PMC10307832.

Key:
Experiment in all cases: relative viability (nuclei count vs DMSO), 5 days (fraction); higher = more cells survive
CUDC-101 + Luminespib = compound: C#Cc1cccc(Nc2ncnc3cc(OC)c(OCCCCCCC(=O)NO)cc23)c1 [CUDC-101] + CCNC(=O)c1noc(-c2cc(C(C)C)c(O)cc2O)c1-c1ccc(CN2CCOCC2)cc1 [Luminespib] (partner 0.01 µM)
Method in brief: (§1)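 Five library-drug doses in √10 steps were combined with a fixed anchor-drug dose, or a single drug was given alone, by pin tool to lung cancer cell lines in 1536-well plates the day after seeding. Nuclei were stained and counted after 5 days. Relative viability is the nuclei count in treated wells over that in vehicle wells, taken as the median of duplicate plates.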

[1] = compound: C1=CC=C2C(=C1)N=C(S2)C(C#N)C3=NC(=NC=C3)NCCC4=CN=CC=C4 + CS(=O)(=O)N1CCN(Cc2cc3nc(-c4cccc5[nH]ncc45)nc(N4CCOCC4)c3s2)CC1 [Pictilisib] (partner 1 µM)
Method in brief: as §1

NVP-TAE684 + Pemetrexed = compound: COc1cc(N2CCC(N3CCN(C)CC3)CC2)ccc1Nc1ncc(Cl)c(Nc2ccccc2S(=O)(=O)C(C)C)n1 [NVP-TAE684] + Nc1nc2[nH]cc(CCc3ccc(C(=O)N[C@@H](CCC(=O)O)C(=O)O)cc3)c2c(=O)[nH]1 [Pemetrexed] (partner 0.2 µM)
Method in brief: as §1

[2] = compound: C1=CC=C2C(=C1)N=C(S2)C(C#N)C3=NC(=NC=C3)NCCC4=CN=CC=C4 + NC(=O)Nc1cc(-c2cccc(F)c2)sc1C(=O)N[C@H]1CCCNC1 [AZD7762] (partner 0.2 µM)
Method in brief: as §1

Row | Cell Line | relative viability (CUDC-101 + Luminespib; first compound 0.01 µM) | relative viability (CUDC-101 + Luminespib; first compound 0.03162 µM) | relative viability (CUDC-101 + Luminespib; first compound 0.1 µM) | relative viability (CUDC-101 + Luminespib; first compound 0.3162 µM) | relative viability (CUDC-101 + Luminespib; first compound 1 µM) | relative viability ([1]; first compound 0.005 µM) | relative viability ([1]; first compound 0.01581 µM) | relative viability ([1]; first compound 0.05 µM) | relative viability ([1]; first compound 0.1581 µM) | relative viability ([1]; first compound 0.5 µM) | relative viability (NVP-TAE684 + Pemetrexed; first compound 0.2 µM) | relative viability (NVP-TAE684 + Pemetrexed; first compound 0.6325 µM) | relative viability (NVP-TAE684 + Pemetrexed; first compound 2 µM) | relative viability ([2]; first compound 0.005 µM) | relative viability ([2]; first compound 0.01581 µM) | relative viability ([2]; first compound 0.05 µM) | relative viability ([2]; first compound 0.1581 µM) | relative viability ([2]; first compound 0.5 µM)
1 | NCI-H1650 | 0.25 | 0.221 | 0.189 | 0.166 | 0.193 | 0.488 | 0.529 | 0.559 | 0.723 | 0.471 | 0.382 | 0.35 | 0.353 | – | – | – | – | –
2 | NCI-H2085 | 0.479 | 0.446 | 0.437 | 0.45 | 0.385 | 0.43 | 0.43 | 0.39 | 0.483 | 0.388 | 1.01 | 0.874 | 0.813 | 0.833 | 0.956 | 1.02 | 1.07 | 0.905
3 | NCI-H1666 | 1.09 | 1.02 | 1.1 | 1 | 1.07 | 0.474 | 0.39 | 0.369 | 0.402 | 0.332 | 0.985 | 0.796 | 0.77 | 0.956 | 0.764 | 0.817 | 0.805 | 0.803
4 | NCI-H1993 | 0.933 | 0.772 | 0.72 | 0.772 | 0.535 | 0.862 | 0.963 | 0.848 | 0.64 | 0.745 | 0.518 | 0.555 | 0.436 | 0.664 | 0.749 | 1.03 | 1.01 | 0.7
5 | NCI-H1437 | 1.27 | 1.06 | 1.12 | 1.21 | 1.19 | 0.474 | 0.39 | 0.398 | 0.539 | 0.361 | 0.354 | 0.327 | 0.243 | 1.12 | 1.12 | 1.11 | 1.13 | 0.968
6 | ABC-1 | 0.519 | 0.368 | 0.721 | 0.586 | 0.258 | 0.84 | 0.605 | 0.758 | 0.87 | 0.725 | – | – | – | 0.913 | 0.809 | 0.789 | 0.921 | 0.848
7 | NCI-H727 | 0.399 | 0.392 | 0.558 | 0.342 | 0.396 | 0.553 | 0.304 | 0.299 | 0.473 | 0.37 | – | – | – | 0.788 | 0.533 | 0.667 | 0.626 | 0.618
8 | PC-3 [JPC-3] | 0.739 | 0.648 | 0.64 | 0.563 | 0.301 | 0.605 | 0.643 | 0.722 | 0.731 | 0.672 | 1.16 | 1.08 | 0.903 | 0.702 | – | 0.822 | 0.997 | 0.654
9 | HCC-366 | – | – | – | – | – | 0.138 | 0.196 | 0.181 | 0.159 | 0.117 | 0.197 | 0.178 | 0.227 | 0.199 | 0.254 | 0.288 | 0.279 | 0.129
10 | IA-LM | – | – | – | – | – | 0.25 | 0.368 | 0.285 | 0.387 | 0.377 | – | – | – | – | – | – | – | –
